Measured values: article PMC7044277 (Nature Communications, 2020)
pKi: −log10 of the molar value. “And” between values parts separate entries of the source, which are not always exact repeats. Equal entries are not always repeated. “Also recorded” adds a separate entry of the source.

Key:
[1] = target: T1, DRD2 F1103.28A (Homo sapiens, UniProt P14416, F110A); conditions: cited from earlier work
[2] = target: T2, DRD2 Y4087.35A (Homo sapiens, UniProt P14416, Y408A); assay type: binding; conditions: DRD2 Y4087.35A vs wild-type
T2 construct: expressed in transfected cells; host or cells: HEK293T (ATCC CRL-11268)
T2 sequence (P14416 whole entry Y408A): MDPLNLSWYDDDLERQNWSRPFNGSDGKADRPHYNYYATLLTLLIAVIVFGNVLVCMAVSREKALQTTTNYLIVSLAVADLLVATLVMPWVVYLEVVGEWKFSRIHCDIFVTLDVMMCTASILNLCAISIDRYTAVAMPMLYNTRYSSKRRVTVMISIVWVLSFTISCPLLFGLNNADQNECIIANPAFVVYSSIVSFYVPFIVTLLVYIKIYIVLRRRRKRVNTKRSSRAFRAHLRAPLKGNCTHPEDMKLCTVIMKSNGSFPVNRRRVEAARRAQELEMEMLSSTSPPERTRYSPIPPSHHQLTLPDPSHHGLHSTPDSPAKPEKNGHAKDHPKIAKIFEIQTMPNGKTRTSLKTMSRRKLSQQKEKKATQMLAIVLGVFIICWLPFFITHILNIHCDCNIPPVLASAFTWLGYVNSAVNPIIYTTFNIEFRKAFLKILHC

[3] = target: T3, DRD2 F1103.28E (Homo sapiens, UniProt P14416, F110E); assay type: binding; conditions: DRD2 F1103.28E vs wild-type
T3 construct: expressed in transfected cells; host or cells: HEK293T (ATCC CRL-11268)
T3 sequence (P14416 whole entry F110E): as the sequence (P14416 whole entry Y408A) above, with F110E, A408Y counted along it

[4] = target: T4, DRD2 F1103.28L (Homo sapiens, UniProt P14416, F110L); assay type: binding
T4 construct: expressed in transfected cells; host or cells: HEK293T (ATCC CRL-11268)
T4 sequence (P14416 whole entry F110L): as the sequence (P14416 whole entry Y408A) above, with F110L, A408Y counted along it

[5] = target: T1, DRD2 F1103.28A; assay type: binding; parameters: expressed in transfected cells; host or cells: HEK293T (ATCC CRL-11268)
[6] = target: DRD2 (D2 long receptor) wild-type (Homo sapiens, UniProt P14416); assay: Radioligand competition binding, [3H]-N-methylspiperone, HEK293T membranes; parameters: Fig_1a competition binding curve, source data: unit not given here; conditions: Log [L-741626]
Chain of DRD2 (D2 long receptor) wild-type (P14416 whole entry): as the sequence (P14416 whole entry Y408A) above, with A408Y counted along it

[7] = target: T5, DRD2 F1103.28C (Homo sapiens, UniProt P14416, F110C); assay type: binding; conditions: DRD2 F1103.28C vs wild-type
T5 construct: expressed in transfected cells; host or cells: HEK293T (ATCC CRL-11268)
T5 sequence (P14416 whole entry F110C): as the sequence (P14416 whole entry Y408A) above, with F110C, A408Y counted along it

[8] = target: T6, DRD2 W100EL1A (Homo sapiens, UniProt P14416, W100A); assay type: binding; conditions: DRD2 W100EL1A vs wild-type
T6 construct: expressed in transfected cells; host or cells: HEK293T (ATCC CRL-11268)
T6 sequence (P14416 whole entry W100A): as the sequence (P14416 whole entry Y408A) above, with W100A, A408Y counted along it

[9] = target: T7, DRD4 (D4.4 variant) wild-type (Homo sapiens, UniProt P21917); assay: Radioligand competition binding, [3H]-N-methylspiperone; conditions: for Fig_1a competition binding curve, source data: Log [L-741626]
T7 sequence (P21917 1-419): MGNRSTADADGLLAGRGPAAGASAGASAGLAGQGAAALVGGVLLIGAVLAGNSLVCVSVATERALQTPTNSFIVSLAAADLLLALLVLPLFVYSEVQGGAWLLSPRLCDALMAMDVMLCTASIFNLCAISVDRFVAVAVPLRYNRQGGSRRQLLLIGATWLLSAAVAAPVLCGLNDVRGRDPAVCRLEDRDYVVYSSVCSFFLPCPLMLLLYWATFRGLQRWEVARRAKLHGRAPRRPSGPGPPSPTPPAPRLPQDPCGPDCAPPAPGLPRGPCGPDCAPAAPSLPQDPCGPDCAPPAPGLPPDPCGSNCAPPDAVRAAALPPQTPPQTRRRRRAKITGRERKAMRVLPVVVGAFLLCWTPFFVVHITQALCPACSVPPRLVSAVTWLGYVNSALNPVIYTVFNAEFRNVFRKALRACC

[10] = target: T8, DRD2 F1103.28Y (Homo sapiens, UniProt P14416, F110Y); assay type: binding
T8 construct: expressed in transfected cells; host or cells: HEK293T (ATCC CRL-11268)
T8 sequence (P14416 whole entry F110Y): as the sequence (P14416 whole entry Y408A) above, with F110Y, A408Y counted along it

[11] = target: DRD3 F1063.28A (Homo sapiens, UniProt P35462, F106A); assay: biochemical; assay type: binding
Chain of DRD3 F1063.28A (P35462 whole entry F106A): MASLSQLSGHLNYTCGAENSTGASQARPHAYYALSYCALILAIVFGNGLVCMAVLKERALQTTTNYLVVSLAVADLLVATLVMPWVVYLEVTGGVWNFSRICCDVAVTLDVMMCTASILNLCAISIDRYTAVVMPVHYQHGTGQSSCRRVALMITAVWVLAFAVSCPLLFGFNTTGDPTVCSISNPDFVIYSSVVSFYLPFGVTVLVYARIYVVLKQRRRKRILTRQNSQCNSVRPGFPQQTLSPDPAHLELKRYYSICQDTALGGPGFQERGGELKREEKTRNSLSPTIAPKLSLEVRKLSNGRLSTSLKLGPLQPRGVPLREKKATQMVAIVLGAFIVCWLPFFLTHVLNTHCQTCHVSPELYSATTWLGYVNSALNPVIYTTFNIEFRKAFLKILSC

[12] = target: T9, DRD2 F1103.28W (Homo sapiens, UniProt P14416, F110W); assay type: binding
T9 construct: expressed in transfected cells; host or cells: HEK293T (ATCC CRL-11268)
T9 sequence (P14416 whole entry F110W): as the sequence (P14416 whole entry Y408A) above, with F110W, A408Y counted along it

[13] = target: T10, DRD2 L942.64A (Homo sapiens, UniProt P14416, L94A); assay type: binding; conditions: DRD2 L942.64A vs DRD2 wild-type
T10 construct: expressed in transfected cells; host or cells: HEK293T (ATCC CRL-11268)
T10 sequence (P14416 whole entry L94A): as the sequence (P14416 whole entry Y408A) above, with L94A, A408Y counted along it

[14] = target: T11, DRD2 W100ECL1F (Homo sapiens, UniProt P14416, W100F); assay type: binding; conditions: DRD2 W100ECL1F vs wild-type
T11 construct: expressed in transfected cells; host or cells: HEK293T (ATCC CRL-11268)
T11 sequence (P14416 whole entry W100F): as the sequence (P14416 whole entry Y408A) above, with W100F, A408Y counted along it

[15] = target: T12, DRD2 V1113.29A (Homo sapiens, UniProt P14416, V111A); assay type: binding; conditions: DRD2 V1113.29A vs wild-type
T12 construct: expressed in transfected cells; host or cells: HEK293T (ATCC CRL-11268)
T12 sequence (P14416 whole entry V111A): as the sequence (P14416 whole entry Y408A) above, with V111A, A408Y counted along it

[16] = target: DRD3 wild-type (Homo sapiens, UniProt P35462); assay: Radioligand competition binding, [3H]-N-methylspiperone; parameters: Fig_1a competition binding curve, source data: unit not given here; conditions: for Fig_1a competition binding curve, source data: Log [L-741626]
Chain of DRD3 wild-type (P35462 whole entry): as the sequence (P35462 whole entry F106A) above, with A106F counted along it

T1 sequence (P14416 whole entry F110A): as the sequence (P14416 whole entry Y408A) above, with F110A, A408Y counted along it

For `CNc1cc(OC)c(C(=O)NC2CCN(Cc3ccccc3)C2C)cc1Cl` (stereo not shown) [nemonapride], the “effect of Phe110^3.28Ala mutation on binding” value [1] is listed as “did not enhance the binding; also recorded: didn’t enhance the binding”.

For `OC1(c2ccc(Cl)cc2)CCN(Cc2c[nH]c3ccccc23)CC1` [L-741626], the “ΔpKi (mutant-WT)” value [2] was -0.10, the “ΔpKi (mutant-WT)” value [3] was 0.03 and the “ΔpKi (mutant-WT)” value ([4]; DRD2 F1103.28L vs wild-type) was 1.27. The “binding enhanced, mutant vs wild type” value ([4]; DRD2 Phe110^3.28Leu vs wild-type DRD2) was 18.65 fold, the “ΔpKi (mutant-WT)” value ([5]; DRD2 F1103.28A vs wild-type) was 2.14 and the “affinity increase (binding enhanced), mutant vs wild type” value ([5]; DRD2 Phe110^3.28Ala vs wild-type DRD2) was 144.18 fold. The “Fig_1a competition binding curve, source data” value ([6]; M -4, replicates) was -1.355 and 1.993 and -0.6377 and -1.594 and 3.428 and -1.8334, the “Fig_1a competition binding curve, source data” value ([6]; M -7) was 29.733 and 32.3635 and 33.0809 and 32.8418 and 34.0375 and 33.3201 and the “Fig_1a competition binding curve, source data” value ([6]; M -8) was 78.2782 and 80.4304 and 73.2563 and 83.061 and 72.778 and 84.4958. For the same molecule, the “Fig_1a competition binding curve, source data” value ([6]; M -8.5) was 93.8222 and 94.0614 and 107.453 and 92.6265 and 93.1048, the “Fig_1a competition binding curve, source data” value ([6]; M -9) was 100.279 and 96.4528 and 102.67 and 87.1264 and 100.04 and 104.584 and the “Fig_1a competition binding curve, source data” value ([6]; M -9.5) was 97.4093 and 108.171 and 98.605 and 95.0179 and 103.388. The “Fig_1a competition binding curve, source data” value ([6]; M -10) was 91.5385 and 88.2344 and 89.4739, the “Fig_1a competition binding curve, source data” value ([6]; M -11) was 89.0395 and 93.1048 and 90.4743 and 90.2352 and 86.4089 and 84.7349 and the “Fig_1a competition binding curve, source data” value ([6]; M -12) was 100.518 and 86.6481 and 95.4962 and 94.7788 and 98.1268 and 94.5397. For the same molecule, the “Fig_1a competition binding curve, source data” value ([6]; M -13) was 93.8222 and 89.2786 and 87.6046 and 85.6915 and 92.3874 and 93.1048, the “ΔpKi (mutant-WT)” value [7] was 0.61 and the “ΔpKi (mutant-WT)” value [8] was -0.79. The pKi [9] was 6.77, the “Fig_1a competition binding curve, source data” value ([9]; M -7) was 75.0526 and 67.9047 and 62.8591 and 59.9159 and 75.8935 and the “Fig_1a competition binding curve, source data” value ([9]; M -8) was 91.8711 and 84.3027 and 93.5529 and 96.4962. For the same molecule, the “Fig_1a competition binding curve, source data” value ([9]; M -8.5) was 103.224 and 99.4394 and 102.803 and 91.8711, the “Fig_1a competition binding curve, source data” value ([9]; M -9) was 79.2572 and 91.8711 and 89.7687 and 85.9846 and 96.9166 and 113.735 and the “Fig_1a competition binding curve, source data” value ([9]; M -9.5) was 89.7687 and 87.246 and 104.905 and 87.6664 and 93.1325 and 88.9278. For the same molecule, the “Fig_1a competition binding curve, source data” value ([9]; M -10) was 74.6321 and 83.0413 and 75.8935 and 70.4275 and 85.5641 and 84.3027, the “Fig_1a competition binding curve, source data” value ([9]; M -11) was 92.712 and 78.8367 and 85.1437 and 96.4962 and 77.9958 and 82.6209 and the “Fig_1a competition binding curve, source data” value ([9]; M -12) was 77.1549 and 85.1437 and 89.7687 and 83.4618 and 81.3595. For the same molecule, the “Fig_1a competition binding curve, source data” value ([9]; M -13) was 88.0869 and 85.5641 and 82.6209 and 79.6776 and 79.2572, the “ΔpKi (mutant-WT)” value ([10]; DRD2 F1103.28Y vs wild-type) was -1.76 and the “binding reduced, mutant vs wild type” value ([10]; DRD2 Phe110^3.28Tyr vs wild-type DRD2) was 57.54 fold. The pKi [11] was 8.27, the “ΔpKi (mutant-WT)” value ([11]; DRD3 F1063.28A vs DRD3 wild-type) was 1.54 and the “binding affinity increased, mutant vs wild type” value ([11]; DRD3 Phe106^3.28Ala vs wild-type DRD3) was 34.67 fold. For the same molecule, the “ΔpKi (mutant-WT)” value ([12]; DRD2 F1103.28W vs wild-type) was -0.93, the “binding reduced, mutant vs wild type” value ([12]; DRD2 Phe110^3.28Trp vs wild-type DRD2) was 8.51 fold and the “ΔpKi (mutant-WT)” value [13] was -0.45. The “ΔpKi (mutant-WT)” value [14] was -0.85, the “ΔpKi (mutant-WT)” value [15] was -0.26 and the pKi [16] was 6.73. For the same molecule, the “Fig_1a competition binding curve, source data” value ([16]; M -6) was 32.8337 and 26.7408 and 38.6364 and 33.7041 and 31.0928, the “Fig_1a competition binding curve, source data” value ([16]; M -7) was 71.7118 and 82.4468 and 88.2495 and 78.675 and 74.323 and 84.4778 and the “Fig_1a competition binding curve, source data” value ([16]; M -8.5) was 107.108 and 98.6944 and 100.725 and 87.3791 and 104.497 and 101.596. For the same molecule, the “Fig_1a competition binding curve, source data” value ([16]; M -9) was 98.4043 and 97.5338 and 93.7621 and 84.7679 and 88.8298 and 89.7002, the “Fig_1a competition binding curve, source data” value ([16]; M -9.5) was 87.3791 and 78.3849 and 90.2805 and 81.5764 and 85.058 and 98.1141 and the “Fig_1a competition binding curve, source data” value ([16]; M -10) was 76.9342 and 89.7002 and 81.8665 and 72.2921 and 84.1876 and 72.0019. The “Fig_1a competition binding curve, source data” value ([16]; M -11) was 74.6132 and 85.6383 and 84.7679 and 77.8046 and 89.7002 and 91.441, the “Fig_1a competition binding curve, source data” value ([16]; M -12) was 84.7679 and 85.9284 and 102.466 and 78.0948 and 88.2495 and the “Fig_1a competition binding curve, source data” value ([16]; M -13) was 63.0077 and 75.4836 and 75.1934 and 78.675 and 77.5145 and 81.2863.
